Activity calls are given as the source filed them. The rule behind the calls is not given here.
Assays:
[1] = tested on: SK-N-MC; test: Cytotoxicity against Homo sapiens (human) SK-N-MC cells after 72 hr by MTT assay; format: functional, cell-based
[2] = tested on: K562; test: Cytotoxicity against Homo sapiens (human) K562 cells after 72 hr by MTT assay; format: functional, cell-based; details: K562, 72 h
[3] = biological target: T1, Tubulin alpha 4a (Ovis aries, UniProt C5ISA2); test: (§1) Inhibition of Ovis aries (sheep) brain tubulin polymerization assessed as microtubule assembly after 15 min by measuring turbidity based spectroscopic analysis
T1 sequence (C5ISA2 1-448): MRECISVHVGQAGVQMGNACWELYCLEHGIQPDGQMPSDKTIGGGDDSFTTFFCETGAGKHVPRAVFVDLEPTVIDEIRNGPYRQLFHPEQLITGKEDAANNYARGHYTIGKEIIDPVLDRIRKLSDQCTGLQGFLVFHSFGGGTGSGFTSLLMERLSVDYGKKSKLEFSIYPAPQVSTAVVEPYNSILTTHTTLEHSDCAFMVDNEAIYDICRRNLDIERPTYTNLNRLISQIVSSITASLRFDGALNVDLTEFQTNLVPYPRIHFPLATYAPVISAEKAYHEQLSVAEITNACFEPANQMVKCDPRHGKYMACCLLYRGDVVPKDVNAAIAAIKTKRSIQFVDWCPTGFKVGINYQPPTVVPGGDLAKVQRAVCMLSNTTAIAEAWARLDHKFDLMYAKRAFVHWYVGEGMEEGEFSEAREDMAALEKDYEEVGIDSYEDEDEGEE

[4] = biological target: Tubulin alpha 4a (Ovis aries) (UniProt C5ISA2); test: as §1
Sequence of Tubulin alpha 4a (Ovis aries) (C5ISA2 1-448): as above

[5] = biological target: Tubulin alpha 4a (Ovis aries) (UniProt C5ISA2); test: Binding affinity to Ovis aries (sheep) brain tubulin assessed as […] at 25 to 50 uM after 30 min by far-UV CD spectrum analysis
[6] = biological target: Tubulin alpha 4a (Ovis aries) (UniProt C5ISA2); test: (§2) Binding affinity to Ovis aries (sheep) brain tubulin assessed as intrinsic tryptophan fluorescence after 30 min by fluorescence spectroscopic analysis; format: tissue-based
[7] = biological target: T1, Tubulin alpha 4a; test: as §2; format: tissue-based
[8] = biological target: Tubulin alpha 4a (Ovis aries) (UniProt C5ISA2); test: Binding affinity to Ovis aries (sheep) brain tubulin assessed as increase in fluorescent intensity at 1:1 compound protein ratio after 30 min by fluorescence spectroscopic analysis
[9] = biological target: Tubulin alpha 4a (Ovis aries) (UniProt C5ISA2); test: Inhibition of Ovis aries (sheep) brain tubulin polymerization assessed as reduction of length of microtubule filament at 20 to 30 uM after 15 min by transmission electron microscopy analysis
[10] = biological target: Tubulin alpha 4a (Ovis aries) (UniProt C5ISA2); test: Inhibition of Ovis aries (sheep) brain tubulin polymerization assessed as microtubule assembly at 30 uM after 30 min by CD spectra analysis
[11] = biological target: Tubulin alpha 4a (Ovis aries) (UniProt C5ISA2); test: (§3) Inhibition of Ovis aries (sheep) brain tubulin polymerization assessed as microtubule assembly after 30 min by CD spectra analysis
[12] = biological target: T1, Tubulin alpha 4a; test: as §3
[13] = tested on: K562; test: Cytotoxicity against Homo sapiens (human) K562 cells; format: functional, cell-based
[14] = tested on: MCF7; test: Antiproliferative activity against Homo sapiens (human) MCF7 cells; format: functional, cell-based
[15] = tested on: HeLa; test: Antiproliferative activity against Homo sapiens (human) HeLa cells; format: functional, cell-based

| IC50 [3] | inhibition [4] | Activity [5] | Activity [6] | Kd [7] | Activity [8] | inhibition [9] | inhibition [10] | inhibition [11] | IC50 [12] | IC50 [14] | IC50 [15] | SMILES | IC50 [1] | IC50 [2] | IC50 [13] |
| --- | --- | --- | --- | --- | --- | --- | --- | --- | --- | --- | --- | --- | --- | --- | --- |
| > 50 µM | – | – | – | – | – | – | – | – | – | – | – | O=C(/C=C/c1ccc(Cl)cc1Cl)c1cc(Cl)ccc1O | 69.8 µM | 65.6 µM | – |
| 20.3 µM | Dose-dependent effect | – | – | – | – | – | – | – | – | – | – | O=C(/C=C/c1ccc(Cl)cc1)c1cc(Cl)ccc1O | 45.8 µM | 38.7 µM | – |
| 19.6 µM | Dose-dependent effect | Active | Dose-dependent effect | 3.7 µM | Active | Active | 89% | Dose-dependent effect | 19.6 µM | – | – | O=C(/C=C/c1cccc(Cl)c1)c1cc(Cl)ccc1O | 47.8 µM | 41.1 µM | – |

The remaining lines, values behind:

| SMILES | IC50 [3] | inhibition [4] | Activity [5] | Activity [6] | Kd [7] | Activity [8] | inhibition [9] | inhibition [10] | inhibition [11] | IC50 [12] | IC50 [14] | IC50 [15] | IC50 [1] | IC50 [2] | IC50 [13] |
| --- | --- | --- | --- | --- | --- | --- | --- | --- | --- | --- | --- | --- | --- | --- | --- |
| O=C(/C=C/c1ccccc1)c1ccccc1O [2'-HYDROXYCHALCONE] | 49.3 µM | – | – | – | – | – | – | – | – | – | – | – | 61.2 µM | 60.7 µM | – |
| O=C(/C=C/c1ccccc1Cl)c1cc(Cl)ccc1O | 21.4 µM | Dose-dependent effect | – | – | – | – | – | – | – | – | – | – | 51.3 µM | 41.8 µM | – |
| COc1cc(/C=C/C(=O)CC(=O)/C=C/c2ccc(O)c(OC)c2)ccc1O [CURCUMIN] | 26.6 µM | – | – | – | – | – | – | – | – | – | 12 µM | 13.8 µM | 57.4 µM | 49.2 µM | 54.3 µM |
